Test results reported in patent US20080221134A1, “8-ALKYNYLXANTHINES AND DERIVATIVES” (priority 2006, published 2008).

Key:
[1] = molecular target: human A2A receptor (Homo sapiens, UniProt P29274); experiment: Human A2A receptor IC50/Imax (unpublished results); type: binding
[2] = Water solubility (statement); type: physicochemical; conditions: listed as 8-(phenylethynyl)-DMPX
[3] = test system: CGS-21680 induced catalepsy; experiment: Acute CGS-21680 induced catalepsy test; type: in vivo, rat; conditions: i.p. in DMSO, 0.1-10 mg/kg; listed as 8-(phenylethynyl)-DPMX
Experimental: (§1) Animals were administered with Reserpine or CGS-21680 according to methods known to the skilled person in the art. These models and procedures are e.g. described by Ferré S. et al., Neurosci. Let., 1991, 130, 162; Ferré S. et al., Neuroscience, 1992, 51, 501; Kafka S. H. et al., Eur. J. Pharmacol., 1996, 295, 147; Rimondini R. et al., Neuropsychopharmacology, 1997, 17, 82 and are herein incorporated by reference. In the acute CGS-21680 induced catalepsy model (CGS model) the test compounds (TC, compounds according to the present invention) and CGS-21680 (i.p. 2 mg/kg) were administered 60 minutes before the start of the catalepsy bar measurement and behavioural testing described below (see also FIG. 1). In the acute Reserpine induced catalepsy model (RES model Resperine (subcutaneously, 3 mg/kg) was injected 24 h prior to the test compound application. Catalepsy bar measurement took place 60 minutes after test compound application (see FIG. 1). Test compounds were administered i.p. in DMSO in following doses (mg/kg): 0.1, 0.3, 1, 3, 10.
(§2) Dimethylsulfoxide (DMSO) was used as vehicle for the test compounds and Reserpine. Reserpine was dissolved in DMSO in a concentration of 3 mg/ml. A 10% (w/v) Cyclodextrin solution was used as vehicle for CGS-21680. CGS 21680 was dissolved in 10% (w/v) Cyclodextrine in a concentration of 2 mg/ml.
Caffeine was used as a reference compound in the CGS-21680 induced catalepsy model. A caffeine solution was prepared with water for injection purposes to a concentration of 30 mg/ml. The solution was administered intraperitoneally in a volume of 1 ml/kg (30 mg/kg) 30 minutes before the beginning of testing and after CGS-21680 pre-treatment (1 hour prior to testing).
The catalepsy bar after CGS-21680 administration was measured (CAT) as follows: The rat was placed with its forepaws on a log of wood. […] If the animal descended faster than 1 second, the trial was regarded as invalid. If more than 20 trials were rated as invalid, the values of all uncompleted trials were noted as 0. The animal was tested until five trials had been completed and the time for each trial was noted. Only the values of the last three trials were used for the analysis. The following parameters were calculated: maximum time to descend (s) and median time to descend (s).
Behavioural observation (BO) included the measurement of the body tone, inclined plane and grip strength.
The rat is taken in the hand of the observer and the animal's body tone is rated as normal, soft or hard. The rating is performed immediately after taking the animal from its home cage before performance of catalepsy testing. The following parameters were calculated: mean occurrence of hard body tone and mean occurrence of soft body tone.
The rat is horizontally placed to an inclined plane for a maximum time of 30 seconds. Time to reach bottom or top is measured. […] The test is performed after catalepsy testing. Time to leave the inclined plane(s) was measured.
The rat is put on a grip and the observer pulls the animal back on his tail. The strength (fore paws and hind paws) by which it holds on the grid is scored as grasping and pulling, grasping without pulling or no grasping. The test is performed after the inclined plane test. The following parameters were calculated: mean score of fore paw grip strength and mean score of hind paw grip strength.
(§3) All statistical tests were performed two tailed with a value of p<0.05 considered as significant.
(§4) To assess the effects of CGS-21680 and Reserpine pre-treatment compared to vehicle treated controls statistical comparisons between the test groups were performed using a U test statistic.
To assess the effects of test compounds on CGS-21680 and Reserpine pre-treated animals correlation analyses including animals from test groups and the respective test compound-treated groups were performed. […]

[4] = test system: Reserpine induced catalepsy; experiment: Acute Reserpine induced catalepsy test; type: in vivo, rat; conditions: i.p. in DMSO, 0.1-10 mg/kg; listed as 8-(phenylethynyl)-DPMX
Experimental: as §1, §2
Apomorphine was used as a reference compound in the Reserpine induced catalepsy model. Apomorphine injection solution was diluted with purified water to a concentration of 0.3 mg/ml. The solution was administered subcutaneously (s.c.) in a volume of 1 ml/kg (0.3 mg/kg) 20 minutes before the begin of testing after Reserpine pre-treatment (25 hours prior to testing).
The catalepsy bar after Reserpine administration was measured (CAT) as follows: The rat was placed with its forepaws on a log of wood. […] The animal was tested for three trials and the time for each trial was noted. The following parameters were calculated: maximum time to descend (s) and median time to descend (s). […]
as §3, §4
To assess the effects of test compounds on CGS-21680 and Reserpine pre-treated animals correlation analyses including animals from test groups and the respective test compound-treated groups were performed.
Additionally, parametric and non-parametric comparisons for the median catalepsy measure were performed to assess the reliability of the method. In case of parametric testing a GLM analyses was performed including animals from a control group (only vehicle treated animals) and the respective test compound-treated groups with dose as a categorical factor. In case of a significant result, a Dunnett's post hoc test was performed between the according test compound groups and a control group as reference group. In case of non-parametric testing a Kruskal-Wallis H-test was performed including animals from a control group and the respective test compound groups. In case of a significant result single U-test comparisons were performed between a control group and the groups treated with different doses of the test compound.

Sequence of human A2A receptor (P29274 whole entry): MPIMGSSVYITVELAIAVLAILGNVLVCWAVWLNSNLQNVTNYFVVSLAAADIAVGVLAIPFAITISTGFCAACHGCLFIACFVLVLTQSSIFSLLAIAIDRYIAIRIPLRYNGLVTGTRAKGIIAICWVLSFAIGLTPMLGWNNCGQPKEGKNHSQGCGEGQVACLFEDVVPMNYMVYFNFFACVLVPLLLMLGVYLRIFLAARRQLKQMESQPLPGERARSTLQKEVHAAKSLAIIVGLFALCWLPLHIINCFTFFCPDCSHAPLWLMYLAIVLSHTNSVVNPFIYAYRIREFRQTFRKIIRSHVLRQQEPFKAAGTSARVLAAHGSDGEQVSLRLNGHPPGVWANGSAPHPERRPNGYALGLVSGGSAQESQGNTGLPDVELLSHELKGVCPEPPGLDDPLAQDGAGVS

IC50 [1]: > 300 nM
Imax at the human receptor [1]: about 37%
water solubility (in words) [2]: low solubility
Structure (SMILES): C#CCn1c(=O)c2c(nc(C#Cc3ccccc3)n2C)n(C)c1=O
effect on catalepsy time in acute CGS-21680 induced catalepsy model [3]: inactive
effect on catalepsy time in acute Reserpine induced catalepsy model [4]: inactive
